# Measured values as given in patent publication US12357610B2, “Aryl-substituted acetamide and pyrrolidin-2-one derivatives and their use for the treatment of seizures” (University of Houston System, priority 2017, dated 2025).
# Tested on: convulsions in animal models of medically refractory epilepsy
# Assay: rodent models of medically refractory epilepsy (FIG. 12)
# Format: in vivo
# Conditions: multiple rodent models
smiles,measurement,value
CCC1(c2ccccc2)CCNC1=O (racemic) [3-ethyl-3-phenylpyrrolidin-2-one],activity in preventing convulsions in animal models of medically refractory epilepsy,active
